Data from patent US12492188B2, “1H-benzo[D]imidazole derivatives as TLR9 inhibitors for the treatment of fibrosis” (BRISTOL-MYERS SQUIBB COMPANY, priority 2020, dated 2025).
pIC50: −log10 of the molar value. Like-named read-outs stand apart in the source and are kept apart here.

Assays:
Type in all cases: cell-based
human TLR9 = molecular target: T1, human TLR9 (Homo sapiens, UniProt Q9NR96); test: TLR9 inhibition reporter assay (HEK-Blue cells, secreted embryonic alkaline phosphatase reporter)
T1 construct: host or cells: HEK-Blue cells (HEK293-derived reporter line)
T1 sequence (Q9NR96 26-1032): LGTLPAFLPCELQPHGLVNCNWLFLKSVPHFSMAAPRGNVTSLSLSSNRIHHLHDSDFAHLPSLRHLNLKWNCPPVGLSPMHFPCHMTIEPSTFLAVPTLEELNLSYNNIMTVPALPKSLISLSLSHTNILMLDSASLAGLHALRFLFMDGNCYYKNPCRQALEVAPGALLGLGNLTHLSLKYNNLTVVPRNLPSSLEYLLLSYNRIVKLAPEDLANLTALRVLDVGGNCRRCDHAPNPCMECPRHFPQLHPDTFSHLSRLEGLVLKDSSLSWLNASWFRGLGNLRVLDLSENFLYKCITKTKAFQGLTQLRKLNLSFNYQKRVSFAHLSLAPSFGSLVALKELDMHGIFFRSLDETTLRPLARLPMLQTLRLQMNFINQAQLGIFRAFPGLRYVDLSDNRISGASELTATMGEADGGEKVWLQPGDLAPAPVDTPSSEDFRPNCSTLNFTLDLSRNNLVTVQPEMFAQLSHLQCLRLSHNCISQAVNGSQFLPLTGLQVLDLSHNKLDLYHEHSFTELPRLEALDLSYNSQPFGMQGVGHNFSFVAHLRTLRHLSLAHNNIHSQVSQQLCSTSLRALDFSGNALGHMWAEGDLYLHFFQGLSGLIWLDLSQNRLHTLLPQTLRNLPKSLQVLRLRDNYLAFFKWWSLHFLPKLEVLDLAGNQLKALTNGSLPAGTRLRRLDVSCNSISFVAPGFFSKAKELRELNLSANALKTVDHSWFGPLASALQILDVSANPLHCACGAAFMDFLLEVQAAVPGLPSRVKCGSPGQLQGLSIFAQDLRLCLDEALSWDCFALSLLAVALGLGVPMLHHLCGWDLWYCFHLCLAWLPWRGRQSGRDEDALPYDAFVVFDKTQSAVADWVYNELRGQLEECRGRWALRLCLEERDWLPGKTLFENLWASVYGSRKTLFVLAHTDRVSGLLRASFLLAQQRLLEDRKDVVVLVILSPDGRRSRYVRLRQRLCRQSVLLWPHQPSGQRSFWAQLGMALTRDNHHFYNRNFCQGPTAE
Outline: (§1)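 Steps: seed receptor-specific HEK-Blue cells; add compound, 0.05 nM–50 μM; wait 30 min at room temperature; add final gardiquimod 7.5 μM, R848 15.9 μM or ODN2006 5 nM for TLR7, TLR8 or TLR9; incubate 22 h at 37 °C; detect NF-κB/AP-1-driven SEAP.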

human TLR8 = molecular target: T2, human TLR8 (Homo sapiens, UniProt Q9NR97); test: TLR8 inhibition reporter assay (HEK-Blue cells, secreted embryonic alkaline phosphatase reporter); conditions: HEK-Blue cells overexpressing human TLR8, stimulated with R848 15.9 μM; read-out: TLR 8 IC50
T2 construct: host or cells: HEK-Blue cells (HEK293-derived reporter line)
T2 sequence (Q9NR97 27-1041): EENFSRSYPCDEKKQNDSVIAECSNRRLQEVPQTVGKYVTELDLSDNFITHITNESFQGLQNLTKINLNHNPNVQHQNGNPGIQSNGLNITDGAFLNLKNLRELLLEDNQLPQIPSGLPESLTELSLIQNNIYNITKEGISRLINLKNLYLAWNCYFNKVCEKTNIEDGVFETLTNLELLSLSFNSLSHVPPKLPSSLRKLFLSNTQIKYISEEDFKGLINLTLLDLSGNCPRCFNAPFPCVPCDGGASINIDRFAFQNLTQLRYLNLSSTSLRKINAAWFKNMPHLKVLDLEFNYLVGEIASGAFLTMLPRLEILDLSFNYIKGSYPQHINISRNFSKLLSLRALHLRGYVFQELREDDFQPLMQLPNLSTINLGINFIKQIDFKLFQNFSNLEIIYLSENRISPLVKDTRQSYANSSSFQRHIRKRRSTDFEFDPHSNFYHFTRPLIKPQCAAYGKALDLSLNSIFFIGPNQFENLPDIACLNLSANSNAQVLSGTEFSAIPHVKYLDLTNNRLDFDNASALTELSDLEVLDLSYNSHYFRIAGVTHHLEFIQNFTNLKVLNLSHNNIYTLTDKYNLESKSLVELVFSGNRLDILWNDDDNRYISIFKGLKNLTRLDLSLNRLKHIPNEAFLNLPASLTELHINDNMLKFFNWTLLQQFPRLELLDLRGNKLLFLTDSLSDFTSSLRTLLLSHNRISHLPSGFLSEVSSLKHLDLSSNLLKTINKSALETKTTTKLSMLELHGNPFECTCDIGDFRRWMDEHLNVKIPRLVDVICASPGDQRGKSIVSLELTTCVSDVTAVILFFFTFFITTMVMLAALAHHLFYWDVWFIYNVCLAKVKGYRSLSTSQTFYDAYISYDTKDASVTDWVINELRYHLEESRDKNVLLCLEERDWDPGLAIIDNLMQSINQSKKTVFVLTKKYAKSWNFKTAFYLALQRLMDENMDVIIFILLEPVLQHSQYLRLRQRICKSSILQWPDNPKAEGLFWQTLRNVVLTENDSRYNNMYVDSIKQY
Outline: as §1

human TLR7 = molecular target: T3, human TLR7 (Homo sapiens, UniProt Q9NYK1); test: TLR7 inhibition reporter assay (HEK-Blue cells, secreted embryonic alkaline phosphatase reporter); conditions: HEK-Blue cells overexpressing human TLR7, stimulated with gardiquimod 7.5 μM; read-out: TLR 7 IC50
T3 construct: host or cells: HEK-Blue cells (HEK293-derived reporter line)
T3 sequence (Q9NYK1 27-1049): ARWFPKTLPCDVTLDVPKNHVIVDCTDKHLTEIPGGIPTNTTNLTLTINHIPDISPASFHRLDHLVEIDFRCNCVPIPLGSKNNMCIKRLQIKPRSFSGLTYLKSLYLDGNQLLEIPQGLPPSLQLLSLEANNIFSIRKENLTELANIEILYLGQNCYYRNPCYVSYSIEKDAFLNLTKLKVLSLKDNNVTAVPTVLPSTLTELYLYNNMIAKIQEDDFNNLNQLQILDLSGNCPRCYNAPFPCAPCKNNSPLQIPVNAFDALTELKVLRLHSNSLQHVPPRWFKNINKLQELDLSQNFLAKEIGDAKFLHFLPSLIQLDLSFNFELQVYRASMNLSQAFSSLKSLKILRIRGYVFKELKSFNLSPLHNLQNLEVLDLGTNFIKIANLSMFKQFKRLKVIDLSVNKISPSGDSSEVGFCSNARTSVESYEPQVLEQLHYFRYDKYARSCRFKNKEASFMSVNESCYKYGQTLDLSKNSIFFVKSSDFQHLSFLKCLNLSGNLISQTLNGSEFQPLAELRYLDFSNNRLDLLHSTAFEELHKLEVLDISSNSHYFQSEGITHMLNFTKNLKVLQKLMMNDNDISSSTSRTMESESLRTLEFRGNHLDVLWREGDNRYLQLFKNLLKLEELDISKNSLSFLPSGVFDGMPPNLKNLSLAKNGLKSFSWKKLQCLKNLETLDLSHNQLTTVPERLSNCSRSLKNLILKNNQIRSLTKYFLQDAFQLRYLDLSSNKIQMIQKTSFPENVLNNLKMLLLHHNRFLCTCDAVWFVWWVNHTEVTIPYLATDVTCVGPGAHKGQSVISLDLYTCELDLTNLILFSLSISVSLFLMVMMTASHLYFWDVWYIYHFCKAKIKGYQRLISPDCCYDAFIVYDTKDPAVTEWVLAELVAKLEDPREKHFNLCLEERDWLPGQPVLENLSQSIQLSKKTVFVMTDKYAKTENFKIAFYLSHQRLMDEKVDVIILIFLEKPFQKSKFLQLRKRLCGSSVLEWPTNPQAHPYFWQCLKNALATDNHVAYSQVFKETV
Outline: as §1

[1] = HEK-Blue cells overexpressing human TLR9, stimulated with ODN2006 5 nM, 22 hour incubation, reporter readout
[2] = HEK-Blue cells overexpressing human TLR9, stimulated with ODN2006 5 nM, read-out: TLR 9 IC50

SMILES | pIC50 (human TLR9; [1]) | pIC50 (human TLR8) | pIC50 (human TLR7) | pIC50 (human TLR9; [2]) | pIC50 (human TLR9; HEK-Blue human TLR9 reporter cells) | pIC50 (human TLR9)
Cc1cc(-c2ccc(CN3CC4(C3)CN(CC(C)C)C4)cc2)cc2c1nc(-c1ccc(S(C)(=O)=O)cc1)n2C [Example 371, 6-(4-((6-isobutyl-2,6-diazaspiro[3.3]heptan-2-yl)methyl)phenyl)-1,4-dimethyl-2-(4-(methylsulfonyl)phenyl)-1H-benzo[d]imidazole] | 7.26 | 5.17 | 5.74 | – | – | –
Cc1cc(-c2ccc(C3CCN(C(C)C)CC3)nc2)cc2c1nc(-c1ccc(S(C)(=O)=O)cc1)n2C [Example 365, 6-(6-(1-isopropylpiperidin-4-yl)pyridin-3-yl)-1,4-dimethyl-2-(4-(methylsulfonyl)phenyl)-1H-benzo[d]imidazole] | 6.52 | 4.85 | 5.68 | – | – | –
Cc1cc(C2CCN(C3CC4CCC(C3)N4C(C)C)CC2)cc2c1nc(-c1ccc(S(C)(=O)=O)c(F)c1)n2C (centres unmarked) [Example 344, 2-(3-fluoro-4-(methylsulfonyl)phenyl)-6-(1-(8-isopropyl-8-azabicyclo[3.2.1]octan-3-yl)piperidin-4-yl)-1,4-dimethyl-1H-benzo[d]imidazole] | – | < 4.30 | 4.97 | 7.91 | 6.92 | –
COCCN1C2CCC1CC(N1CCC(c3cc4c(cc3F)nc(-c3ccc(S(C)(=O)=O)cc3)n4C)CC1)C2 (single isomer, unassigned) [Example 238, 5-fluoro-6-(1-(8-(2-methoxyethyl)-8-azabicyclo[3.2.1]octan-3-yl)piperidin-4-yl)-1-methyl-2-(4-(methylsulfonyl)phenyl)-1H-benzo[d]imidazole] | – | < 4.30 | 4.46 | 7.24 | – | 7.24
Cc1cc(-c2ccc(CN3CCC(N4CCC4)CC3)c(F)c2)cc2c1nc(-c1ccc(S(C)(=O)=O)cc1)n2C [Example 403, 6-(4-((4-(azetidin-1-yl)piperidin-1-yl)methyl)-3-fluorophenyl)-1,4-dimethyl-2-(4-(methylsulfonyl)phenyl)-1H-benzo[d]imidazole] | 7.09 | 4.80 | 6.52 | 7.03 | – | –
CC(C)CN1C2CCC1CC(N1CCC(c3ccc4c(nc(-c5ccc(S(C)(=O)=O)cc5)n4C)c3F)CC1)C2 (single isomer, unassigned) [Example 190, 4-fluoro-5-(1-(8-isobutyl-8-azabicyclo[3.2.1]octan-3-yl)piperidin-4-yl)-1-methyl-2-(4-(methylsulfonyl)phenyl)-1H-benzo[d]imidazole] | – | < 4.30 | < 4.30 | 5.58 | – | 5.59
CC(C)N1CCC(N2CCC(c3cc(F)c4c(c3)nc(-c3ccc(S(C)(=O)=O)cc3)n4C)CC2)CC1 [Example 91, 7-fluoro-5-(1′-isopropyl-[1,4′-bipiperidin]-4-yl)-1-methyl-2-(4-(methylsulfonyl)phenyl)-1H-benzo[d]imidazole] | 7.00 | < 4.30 | 4.71 | 6.98 | – | –
Cc1cc(-c2ccc(CN3CCC(N(C)C4CC4)CC3)cc2)cc2c1nc(-c1ccc(S(C)(=O)=O)cc1)n2C [Example 393, N-cyclopropyl-1-(4-(1,4-dimethyl-2-(4-(methylsulfonyl)phenyl)-1H-benzo[d]imidazol-6-yl)benzyl)-N-methylpiperidin-4-amine] | 6.48 | 5.02 | < 4.30 | 6.48 | – | –
COc1ccc(-c2nc3c(C)cc(C4CCN(C5CCN(CC(C)C)CC5)CC4)cc3n2C)cc1OC [Example 15, 2-(3,4-dimethoxyphenyl)-6-(1′-isobutyl-[1,4′-bipiperidin]-4-yl)-1,4-dimethyl-1H-benzo[d]imidazole tris(2,2,2-trifluoroacetate)] | 7.72 | < 4.30 | 5.15 | – | – | –
Cc1cc(-c2cc(F)cc(CN3CCC(N4CCCC4)CC3)c2)cc2c1nc(-c1ccc(S(C)(=O)=O)cc1)n2C [Example 405, 6-(3-fluoro-5-((4-(pyrrolidin-1-yl)piperidin-1-yl)methyl)phenyl)-1,4-dimethyl-2-(4-(methylsulfonyl)phenyl)-1H-benzo[d]imidazole] | 7.68 | 6.05 | 6.52 | 7.68 | – | –
Cn1c(-c2ccc(S(C)(=O)=O)cc2)nc2cc(C3CCN(C4CCN(C5CCOCC5)CC4)CC3)cc(F)c21 [Example 207, 7-fluoro-1-methyl-2-(4-(methylsulfonyl)phenyl)-5-(1′-(tetrahydro-2H-pyran-4-yl)-[1,4′-bipiperidin]-4-yl)-1H-benzo[d]imidazole] | – | < 4.30 | 4.74 | 6.96 | – | 6.96
